≈ marks a conversion by molar mass, not a printed value. Like-named read-outs stand apart in the source and are kept apart here. Peptide text beside a SMILES is read from it.
Columns and labels:
human erythrocytes = assay: In vitro hemolytic activity test; format: cell-based; details: 1 h 37 °C
Experimental: The hemolytic activities of peptides were determined by hemolysis against human erythrocytes. Pooled fresh blood was obtained from healthy volunteers (Red Cross Flanders) and erythrocytes were collected by centrifugation 1,000 × g for 5 min (anticoagulated by EDTAK). The pellet was washed three times with phosphate-buffered saline (PBS) and was diluted to a concentration of 8% in PBS. One hundred microliters of 8% red blood cells solution was mixed with 100 µL of serial dilutions of peptides in PBS buffer in 96-well plates (BD Biosciences). The reaction mixtures were incubated for 1 h at 37 °C. Thereupon, the plate was centrifuged for 10 min at 1,000 × g and 100 µL of supernatant was transferred to a sterilized 96-well plate (BD Biosciences, flat bottom). The release of hemoglobin was determined by measuring the absorbance of the supernatant at 405 nm. […] Erythrocytes in 1% Triton and maximum used concentration of vehicle were used as the control of 100 and 0% hemolysis, respectively.

E. coli K-12 BW25113 = format: cell-based, Escherichia coli
Experimental: (§1) If the bactericidal effect of P2 is indeed mediated by a loss of protein homeostasis, the cellular chaperone machinery would be expected to counteract or limit the effect of the peptide. […] To ensure that this effect was not due to the reduced overall viability of the dnaK deletion strain, we also tested the MIC value at 30 °C and obtained the same result (MIC = 6 μg/mL). This confirms that the direct inhibition of chaperones and proteases is not the principal mechanism of action of P2. […] The deletion strains with the strongest effect largely matched those found in the IBs by MS, including those of the cotranslationally acting chaperones TF (tig), dnaK (Hsp70 family), and its cochaperone dnaJ, as well as the small Hsps hchA (Hsp31), hslO (Hsp33), and ipbA (α-crystallin family). The disaggregase clpB and the aggregation-controlling protease lon also had strong effects.
(§2) The MICs of active peptides were determined via the Broth microdilution assay according to the EUCAST guideline, which was performed in 96-well polystyrene flat bottom microtiter plates (BD Biosciences). Briefly, a single colony was inoculated into 5 mL LB medium and grown to the end-exponential growth phase in a shaking incubator at 37 °C. Cultures were subsequently diluted to an OD600 (optical density) of 0.002 ([…]) in fresh LB medium. One hundred microliters of LB medium with different concentration of peptides ranging from 100 to 0.75 µg/mL were serially diluted to the sterile 96-well plate (at least three wells in each plate). Afterwards, 100 µL of the diluted bacteria were pipetted into 96-well plates containing different concentration of peptides. In each plate, the grown bacteria with the maximum concentration of carrier and medium were considered as positive and negative controls, respectively. Thereafter, 96-well plates were statically incubated overnight at 37 °C to allow bacterial growth. OD was measured at 590 nm for 1 s using a multipurpose ultraviolet–visible plate reader, and the absorbance of the growth bacteria was measured using a Perkin Elmer spectrophotometer (1420 Multilabel Counter Victor 3).
Knockout chaperon strains were purchased from Dharmacon E. coli Keio knockout collection, which contains a set of single-gene deletion mutants for chaperone E. coli K-12 genes. Each deleted gene has been replaced with a kanamycin (30 μg/ mL) resistance cassette.

E. coli BL21 = format: cell-based, Escherichia coli
Experimental: as §1, §2
Chaperone co-expression plasmids were purchased from Takara set (catalog# 3340), which consists of five different plasmids that contain chaperone plasmids developed by HSP Research Institute Inc. Plasmids were transformed into competent E. coli BL21. The co-expression chaperone strains are chloramphenicol selective of chaperone plasmid (20 μg/mL), and chaperone inducer depending on the chaperone plasmid used. pG-KJE8 (DnaK-dnaJ-grpE araB groES-groEL) induced by L-arabinose (0.5 mg/mL), tetracycline (1–5 ng/mL), pGro7 (groES-groEL) induced by L-arabinose (0.5 mg/mL), pKJE7 (dnaK-dnaJ-grpE) induced by L-arabinose (0.5 mg/mL), pG-Tf2 (groES-groEL-tig) induced by tetracycline (1–5 ng/mL), and pTf16 (tig) induced by L-arabinose (0.5 mg/mL).

E. coli O157 = format: cell-based, Escherichia coli; details: HPLC-purified peptide
Description: In order to investigate whether APR redundancy does result in proteostatic collapse, we selected resynthesized and high-performance liquid chromatography (HPLC)-purified four positive peptides from the screen, P2, P5, P14, and P105, as well as three negative peptides, P3, P4, and P11, and confirmed their MIC and minimum bactericidal concentration (MBC) values (Table 1). […] These IBs, which are also called large polar aggregates, could be stained with pentameric formyl thiophene acetic acid (pFTAA, Fig. 1j and supplementary Fig. 3), an extensively characterized amyloid-specific dye[20]–[22], which specifically binds to amyloid-like aggregates as well as disease-associated protein IBs[22]. This IB-staining pattern could be observed for all bactericidal peptides, but not for any of the other peptides, although some other pFTAA-positive structures could be discerned (Supplementary Fig. 3). We confirmed the cross-β-structure content of IB using thioflavin-T staining and correlative atomic force microscopy nanoimaging and Fourier transform infrared spectroscopy (Supplementary Note 2 and Supplementary Fig. 4).

Swiss mice = assay: In vivo toxicity test; design: species or system mouse; details: Swiss female mice, 30 mg/kg IP once a day for 18 days (Supplementary Note 8)
Experimental: The procedures used in the assays were approved by the local Animal Ethics Committee and conform to international standards of animal welfare (Approval P067/2015 of the Ethical Committee of KULeuven). A safe concentration of peptides of […] was used for this experiment.
Briefly, 5–6-week-old Swiss females were divided into […] (six animals per group) and administered 30 mg/kg of P2 (group A) or vehicle (physiological water pH 7.5) (group B) once a day for 18 days via IP injection. During the treatment period, the clinical, physiological, and behavioral parameters, including body weight, food and water consumption, body condition score, home cage activity, and locomotion were constantly monitored and recorded.
Three days after the last administration, animals were anesthetized and blood was collected using a standard retro-orbital puncture from each animal. Next, the mice sacrificed and underwent complete necropsy with gross examination and organ weights. The organs (heart, liver, spleen, kidney, bone marrow, brain, lung) were sampled and immersed in fixative in 4% paraformaldehyde. […] Five-micrometer-thick sections taken from these blocks (Thermo Scientific Microm HM355S microtome) were then stained with hematoxylin and eosin (Leica ST5010 Autostainer XL) and evaluated under a Leica DM 2500 light microscope by a board-certified veterinary pathologist. […]

E. coli O157:H7 = format: cell-based, Escherichia coli
Experimental: as §2

With CC(C)C[C@H](NC(=O)CNC(=O)[C@H](CCCNC(=N)N)NC(=O)[C@@H]1CCCN1C(=O)[C@H](CCCNC(=N)N)NC(=O)[C@H](CCCNC(=N)N)NC(=O)[C@@H](NC(=O)[C@H](CC(C)C)NC(=O)[C@H](C)NC(=O)[C@H](CC(C)C)NC(=O)CNC(=O)[C@H](CC(C)C)NC(=O)CNC(=O)[C@@H](N)CCCNC(=N)N)C(C)C)C(=O)NCC(=O)N[C@@H](CC(C)C)C(=O)N[C@@H](C)C(=O)N[C@@H](CC(C)C)C(=O)N[C@H](C(=O)N[C@@H](CCCNC(=N)N)C(=O)N[C@@H](CCCNC(=N)N)C(=O)O)C(C)C [P2] (H-RGLGLALVRRPRGLGLALVRR-OH) the “LC50, concentration inducing 50% lysis of human erythrocytes” value (human erythrocytes) was 1,100 μg/mL, the MIC (E. coli K-12 BW25113; KEIO WT) was 12 µg/mL (≈ 5.22 µM) and the MIC (E. coli K-12 BW25113; dnaK deletion strain, tested at 30 °C) was 6 µg/mL (≈ 2.61 µM). For the same compound, the MIC (E. coli K-12 BW25113; gene deletion ∆ clpA) was 12 µg/mL (≈ 5.22 µM), the MIC (E. coli K-12 BW25113; gene deletion ∆ clpB) was 12 µg/mL (≈ 5.22 µM) and the MIC (E. coli K-12 BW25113; gene deletion ∆ clpP) was 12 µg/mL (≈ 5.22 µM). For the same compound, the MIC (E. coli K-12 BW25113; gene deletion ∆ clpS) was 12 µg/mL (≈ 5.22 µM), the MIC (E. coli K-12 BW25113; gene deletion ∆ clpX) was 12 µg/mL (≈ 5.22 µM) and the MIC (E. coli K-12 BW25113; gene deletion ∆ dnaJ) was 12 µg/mL (≈ 5.22 µM). It also gave an MIC (E. coli K-12 BW25113; gene deletion ∆ dnaK) of 6 µg/mL (≈ 2.61 µM), an MIC (E. coli K-12 BW25113; gene deletion ∆ groL) of 12 µg/mL (≈ 5.22 µM) and an MIC (E. coli K-12 BW25113; gene deletion ∆ hchA) of 6 µg/mL (≈ 2.61 µM). The MIC (E. coli K-12 BW25113; gene deletion ∆ hslO) was 12 µg/mL (≈ 5.22 µM), the MIC (E. coli K-12 BW25113; gene deletion ∆ htpG) was 12 µg/mL (≈ 5.22 µM) and the MIC (E. coli K-12 BW25113; gene deletion ∆ ibpA) was 12 µg/mL (≈ 5.22 µM). The MIC (E. coli K-12 BW25113; gene deletion ∆ ibpB) was 12 µg/mL (≈ 5.22 µM), the MIC (E. coli K-12 BW25113; gene deletion ∆ lon) was 12 µg/mL (≈ 5.22 µM) and the MIC (E. coli K-12 BW25113; gene deletion ∆ sulA) was 12 µg/mL (≈ 5.22 µM). The MIC (E. coli K-12 BW25113; gene deletion ∆ tig) was 12 µg/mL (≈ 5.22 µM), the MIC (E. coli BL21; BL21, plasmid pG-KJE8, overexpressed dnaK-dnaJ-grpE groES-groEL) was 25 µg/mL (≈ 10.9 µM) and the MIC (E. coli BL21; BL21, plasmid pG-Tf2, overexpressed groES-groEL-tig) was 25 µg/mL (≈ 10.9 µM). It also gave an MIC (E. coli BL21; BL21, plasmid pGro7, overexpressed groES-groEL) of 25 µg/mL (≈ 10.9 µM), an MIC (E. coli BL21; BL21, plasmid pKJE7, overexpressed dnaK-dnaJ-grpE) of 25 µg/mL (≈ 10.9 µM) and an MIC (E. coli BL21; BL21, plasmid pTf16, overexpressed tig) of 25 µg/mL (≈ 10.9 µM). For the same compound, the MIC (E. coli BL21; BL21 wt, no plasmid) was 25 µg/mL (≈ 10.9 µM), the MBC (E. coli O157) was 6 µg/mL (≈ 2.61 µM) and the tolerability in mice (Swiss mice) was “tolerated P2 treatments well”. The MIC (E. coli O157:H7; E. coli O157(:H7), HPLC-purified peptide, broth microdilution (EUCAST), LB, overnight 37 °C, OD 590 nm) was 6 µg/mL (≈ 2.61 µM) and the “IC50, concentration at which bacterial growth is 50% inhibited” value (E. coli O157:H7; E. coli O157:H7) was 1.5 µg/mL (≈ 0.652 µM).

Reference: PMC5830399, “Aggregating sequences that occur in many proteins constitute weak spots of bacterial proteostasis” (Nature Communications, 2018)
